# Tested on: Atoh1-GFP positive hair cells and Sox2+ supporting cells in whole cochlea
# Assay: Ex vivo whole cochlea culture, drug applied at the round window niche
# Format: cell-based, mouse
# Procedure: To culture the intact cochlea of P0–P1 mice, the entire otic capsule (cochlea and semicircular canals) was carefully dissected. Connective tissues and nerves were removed to clear the round window niche and the capsule was positioned with the round window facing up in a sterile 35 mm dish. A surgical sponge was employed to blot dry the interior of the round window niche, which was then filled with 2 μl of the formulated drug and applied with a small pipette tip. Following 2 h of drug treatment at 37°C with 5% CO2, the tissue was transferred to a 50 ml conical tube containing 10 ml medium (DMEM, 5%FBS, 5% horse serum and ampicillin) and the tube was sparged with 95% O2/5% CO2 for 5–10 min and incubated for 2 days at 37°C, rotating on a roller/rocker (SCILOGEX MX-T6-S Analog Tube Roller) at 15–17 rpm.
# For whole-mount immunohistochemistry, whole cochleae were fixed (4% PFA) ON at 4°C, then incubated in primary antibodies (72 h, rocking at 4°C), goat anti-GFP polyclonal Ab (AbCam, ab6673) and rabbit anti-Sox2 polyclonal IgG (GenTex, GTX101506) in 4% normal donkey serum. Following extended washes (over 24 h), cochlea were incubated for 24 h in secondary antibodies donkey anti-goat Alexa 488 (Thermo Fisher, A11055) and donkey anti-rabbit Alexa 647 (Thermo Fisher, A31573) and extensively washed. The intact OC were then microdissected from cochleae and mounted on a coverslip for confocal imaging. A LSM 510 Confocal Microscope (Zeiss) utilizing 63X Zeiss Plan-APOCHROMAT DIC oil, 1.4NA and Zen 2009 LSM imaging software was used to optically scan mid-apex regions of OCs. Cellular quantification and image analysis computation were performed with Imaris 8.2.1 software (Bitplane).
# To assess the permeability of the compounds across the round window membrane, a novel ex vivo model was devised to compare drug entry, after delivery to the exterior of the cochlear capsule, to resemble middle ear application. Specifically, CPD3 application was tested in organotypic culture of the entire otic capsule (Figure 4). CPD3, formulated at two different concentrations (1 and 7.2 mM) in 70% PEG400 or 10% POX338 (POX), was applied at the round window niche. Drug formulations were allowed to absorb briefly into the cochlea prior to the 48 h culture. […] For the POX338 formulation, we further characterized the number of Sox2+ supporting cells in the sensory epithelium. […] Also in this model, we observed a trend for new hair cells to be greater toward the apex than the base in agreement with the results obtained with the OC organotypic culture and indicated GSI exposure was throughout the entire length of the organ of Corti length during the culture period.
# FIGURE 4 Hair cell quantification in whole cochlea culture. (A) Hair cell counts from whole cochea culture with directly applied CPD3 in 70% PEG400 (1 mM or 7.2 mM). Atoh1-GFP positive hair cells in different organ of Corti regions (B, base; MB, mid-base; MA, mid-apex; A, apex) (n = 3 independent experiments). (B) Hair cell counts from whole cochea culture with directly applied CPD3 in 10% POX338 (1 mM;, or 7.2 mM). Atoh1-GFP positive hair cells in different organ of Corti regions (B, base; MB, mid-base; MA, mid-apex; A, apex; n = 3 independent experiments). (C) Immunostained inner ear sensory epithelia following whole cochlea culture with direct application of CPD3 (1 and 7.2 mM; Vehicle, 10% POX338). 3D projections of confocal stacks at mid-base region of organ of Corti, Atoh1-GFP (hair cells, green) and Sox2 (supporting cells, red). (D) Quantification of Atoh1-GFP-positive (green dots) and Sox2-positive cells (red dots) after direct application of CPD3 (1 or 7.2 mM), or vehicle formulated in 10% POX338. (*p < 0.05; ***p < 0.001, one-way ANOVA with multiple comparison; n = 12; 3 independent experiments; all regions-base to apex).
smiles,measurement,setting,value
COc1ccc2c(c1)N1CCC(C)(C)C1=CC(=O)[C@H]2NC(=O)[C@H](C)NC(=O)CCC(F)(F)F [CPD3],Increase in Atoh1+ hair cells above vehicle-only,1 mM in 10% POX338,23.3%
same,Atoh1+ hair cells,"1 mM in 10% POX338, 48 h culture",72 ± 11 hair cells/100 μm
same,Change in Atoh1+ hair cells above vehicle-only,1 mM in 70% PEG400,no change
same,Atoh1+ hair cells,"1 mM in 70% PEG400, 48 h culture",54 ± 7 hair cells/100 μm
same,Increase in Atoh1+ hair cells above vehicle-only,7.2 mM in 10% POX338,54.4%
same,Atoh1+ hair cells,"7.2 mM in 10% POX338, 48 h culture",90 ± 20 hair cells/100 μm
same,Increase in Atoh1+ hair cells above vehicle-only,7.2 mM in 70% PEG400,60.1%
same,Atoh1+ hair cells,"7.2 mM in 70% PEG400, 48 h culture",87 ± 15 hair cells/100 μm
same,Supporting cell (Sox2+) counts,"10% POX338 formulation, p < 0.001",significant decrease

# From paper PMC8414802, “Hair Cell Generation in Cochlear Culture Models Mediated by Novel γ-Secretase Inhibitors” (Frontiers in Cell and Developmental Biology, 2021)
